Assay results published in patent publication US20120108538A1, “SULFATED POLYSACCHARIDES HAVING ANTIPLASMODIAL ACTIVITY AND METHODS AND PRODUCTS FOR IDENTIFYING ANTIPLASMODIAL ACTIVITY” (priority 2009, published 2012).
Converted amounts (≈) assume the structure as drawn. “Also recorded” adds a separate entry of the source. Ends that are not written are not given here.

Experiments:
[1] = tested on: purified P. falciparum merozoites invading RBCs; assay: Invasion inhibition assay (IIA) using purified merozoites; assay type: cell-based, Plasmodium falciparum
Method: Purified merozoites were mixed with uninfected RBCs and cultured using standard conditions in 96 well U-bottom plates at a final volume of 50 μl or 100 μl per well. Specific assay conditions were varied for different test conditions, as described in the Results section of the manuscript. Assays were typically performed under static conditions. Some assays were also performed with agitation of merozoite:RBC suspensions.
To test the activity of inhibitory compounds on invasion (Supporting Information Table 3), E64 treated schizonts were resuspended and filtered in culture medium without human serum. A typical merozoite invasion inhibition assay consisted of filtered merozoites (40 ul) added to RBC suspension (5 ul at […]; final concentration 1% hematocrit) and inhibitory compounds (5 ul at 10-times the final concentration required) in 96-well plates. Merozoite:RBCs suspensions containing inhibitors were incubated for one hour and then washed twice with culture medium to remove inhibitors, then resuspended in fresh culture media and incubated and analysed as for standard merozoite invasion assays. A number of compounds were also tested for inhibition of schizont rupture by incubating late stage schizonts (1-2% parasitaemia, 1% haematocrit in 50 ul) with a 1 in 10 dilution of compounds and monitoring the course of schizont rupture at 3 time points over an 8 hour period by flow cytometry.

[2] = tested on: P. falciparum schizonts; assay: Schizont rupture under E64 treatment; assay type: cell-based, Plasmodium falciparum; conditions: 10 uM E64
Method: Parasites were then incubated until most parasites had developed to late-stage pigmented trophozoites and schizonts (typically 40-42 hours). Early to mid schizont stage parasites (40-44 hours post invasion) were separated from uninfected RBC and early-stage infected RBCs (resulting in >95% purity) with a MAC magnet separation column (Macs Miltenyi Biotec). Purified schizonts were then incubated with 10 uM of E64 (Sigma) for 7-8 hours; Applicant typically used approximately 30 ml of culture media for every 100 ml of starting culture (3% hematocrit, 3% parasitemia). After approximately 6 hours of incubation with E64, treated schizonts were pelleted by centrifugation at 1900 g for 5 minutes. Supernatant was removed and schizonts were resuspended in fresh culture media. Resuspended E64 treated parasites were filtered through a 1.2 um Acrodisc 32 mm syringe filter (Pall Corporation). […]
To test the activity of inhibitory compounds on invasion (Supporting Information Table 3), E64 treated schizonts were resuspended and filtered in culture medium without human serum. […] Merozoite:RBCs suspensions containing inhibitors were incubated for one hour and then washed twice with culture medium to remove inhibitors, then resuspended in fresh culture media and incubated and analysed as for standard merozoite invasion assays. […]

[3] = tested on: P. falciparum blood stage growth; assay: Growth inhibition assay (GIA), flow cytometry; assay type: cell-based, Plasmodium falciparum; conditions: for inhibitory activity against P. falciparum blood stage growth in GIA (words) / IC50, inhibition of P. falciparum blood stage growth in GIA: 3D7 parasite line; for IC50, inhibition of P. falciparum blood stage growth in GIA: one cycle of parasite growth
Method: P. falciparum was cultured as described. Parasites were maintained in culture media of RPMI-HEPES supplemented with 5% (vol/vol) heat inactivated (56° C. 1 hr) human serum (Australian Red Cross Blood Bank),. […] (Gibco), 10mM L-glutamine (Gibco) and 25 mM […]. Parasites were grown at 37° C., 2% hematocrit, O+ human erythrocytes (Australian Red Cross Blood Bank), 1% O2 4% CO2 95% N2 atmosphere. Sorbitol (Sigma-Aldrich) was used to synchronize cultures. 32. Persson K E, Lee C T, Marsh K, Beeson J G (2006) Development and optimization of high-throughput methods to measure Plasmodium falciparum-specific growth inhibitory antibodies. J Clin Microbiol 44: 1665-1673.33. Lambros C, Vanderberg J P (1979) Synchronization of Plasmodium falciparum erythrocytic stages in culture. J Parasitol 65: 418-420.
Heparin and K5 polysaccharides (Table 1) were tested for inhibitory activity against P. falciparum parasites using high throughput growth inhibitory assays (GlAs). Duplicate 25 μl suspensions of synchronized parasites, 2% parasitemia (32 hr trophozoite), 1% hematocrit with normal or enzymatically treated erythrocyctes, were incubated with inhibitory compounds in 96 well sterile U-bottom plates (Falcon). For humidification, outside wells were filled with sterile human tonicity phosphate-buffered saline (HT-PBS). Plates were incubated as for parasite culture for 44 hrs and analyzed. Parasites were stained with 10 μg/mL ethidium bromide (EtBr) (BioRad), HT-PBS, 1 hr in darkness. Cells were washed and re-suspended in 200 μL HT-PBS. Parasitemia was measured using FACSCalibur flow-cytometry. Data were analyzed using FlowJo (Tree Star), gating on intact erythrocytes and determining parasitemia by EtBr staining. Inhibitory effects of compounds were expressed as percent growth of uninhibited controls (HT-PBS) for each experiment.
Erythrocytes were treated with neuraminidase, chymotrypsin and trypsin as described previously. Erythrocytes were washed with RPMI-HEPES and incubated with neuraminidase ([…], 15 minutes), chymotrypsin (1 mg/mL, 45 minutes) or trypsin (100 μg/mL, […]) at 37° C. Neuraminidase treated bells were washed three times with RPMI-HEPES and chymotrypsin and trypsin treated cells were washed once with culture media and twice with RPMI-HEPES and then used in GIAs. 34. Persson K E, McCallum F J, Reiling L, Lister N A, Stubbs J, et al. (2008) Variation in use of erythrocyte invasion pathways by Plasmodium falciparum mediates evasion of human inhibitory antibodies. J Clin Invest 118: 342-351.

[4] = target: T1, lactoferrin (Homo sapiens, UniProt P02788); assay: Heparin-BSA binding assay (positive control protein); conditions: data not shown
T1 construct: purchased
T1 sequence (P02788 20-710, species assumed): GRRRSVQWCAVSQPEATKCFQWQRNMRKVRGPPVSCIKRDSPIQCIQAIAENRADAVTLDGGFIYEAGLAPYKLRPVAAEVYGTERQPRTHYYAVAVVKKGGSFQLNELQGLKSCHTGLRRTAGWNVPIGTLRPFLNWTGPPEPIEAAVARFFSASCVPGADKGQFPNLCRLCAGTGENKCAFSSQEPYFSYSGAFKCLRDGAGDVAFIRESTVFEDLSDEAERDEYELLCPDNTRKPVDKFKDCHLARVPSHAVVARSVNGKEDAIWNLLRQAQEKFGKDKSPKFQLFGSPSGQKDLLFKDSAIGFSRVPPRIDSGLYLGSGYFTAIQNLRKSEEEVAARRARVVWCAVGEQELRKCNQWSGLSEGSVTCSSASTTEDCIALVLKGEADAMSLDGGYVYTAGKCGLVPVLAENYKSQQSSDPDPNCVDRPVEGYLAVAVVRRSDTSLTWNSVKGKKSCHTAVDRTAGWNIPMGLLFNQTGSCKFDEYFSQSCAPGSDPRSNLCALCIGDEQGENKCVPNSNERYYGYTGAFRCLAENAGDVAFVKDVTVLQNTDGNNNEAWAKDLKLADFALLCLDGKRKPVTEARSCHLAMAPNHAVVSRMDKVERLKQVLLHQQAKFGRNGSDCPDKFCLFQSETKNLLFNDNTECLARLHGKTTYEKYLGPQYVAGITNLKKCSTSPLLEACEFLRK
Method: (§1) Recombinant merozoite antigens were coated (1 μg/mL) onto 96 well plates (Nunc Maxisorb) in HT-PBS overnight at 4° C. Plates were washed and blocked with 1% casein, 1 hr, room temperature. Plates were incubated with heparin-BSA conjugate with soluble inhibitors and detected with anti-BSA (rabbit) (Sigma-Aldrich) antibodies and anti-rabbit -HRP. Detection was performed with 2,2′-azino-bis(3-ethylbenzthiazoline-6-sulphonic acid) (Sigma-Aldrich) monitored for colour change and measured for absorbance at 405 nm. All incubations were performed in HT-PBS 0.1% casein 0:05% Tween20, 1 hr at room temperature. Plates were washed 3 times HT-PBS 0.05% Tween20 between incubations.

[5] = target: T2, MSP1-42 (Plasmodium falciparum, UniProt Q8I0U8); assay: Binding of native merozoite proteins to heparin-agarose beads with soluble inhibitors; design: proteolytically processed into 83 kDa, 30 kDa, 38 kDa and a C-terminal 42kDa (MSP1-42) fragment; endogenous in cells; host or cells: P. falciparum schizont-stage cultures, Triton X-100 extract; species or system P. falciparum; conditions: soluble inhibitor 200 μg/mL
T2 sequence (Q8I0U8 1327-1699): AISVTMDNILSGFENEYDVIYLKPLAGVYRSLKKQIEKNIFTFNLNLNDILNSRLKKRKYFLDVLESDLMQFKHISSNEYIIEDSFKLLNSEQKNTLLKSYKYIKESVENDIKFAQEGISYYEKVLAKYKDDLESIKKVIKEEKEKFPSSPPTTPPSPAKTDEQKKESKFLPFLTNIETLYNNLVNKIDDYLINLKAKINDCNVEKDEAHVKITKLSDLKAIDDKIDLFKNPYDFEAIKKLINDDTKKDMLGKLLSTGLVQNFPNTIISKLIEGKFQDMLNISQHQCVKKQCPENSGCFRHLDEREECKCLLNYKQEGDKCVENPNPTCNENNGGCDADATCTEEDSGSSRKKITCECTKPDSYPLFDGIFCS
Text: Synchronized schizont stage (40-48 hr, 5-8% parasitemia) cultures were used for protein extraction. Uninfected erythrocytes were lysed with 0.15% saponin (Kodak) on ice for ten minutes. Remaining pellets were washed three times with cold HT-PBS. Protein from schizonts was extracted with 5 times volume of 1% TritonX100 (TX100) (Sigma-Aldrich, Australia), HT-PBS with protease inhibitors (Roche). Insoluble components were pelleted by centrifugation and supernatants collected. Schizont TX100 extracted proteins were bound to heparin-agarose beads (Sigma-Aldrich, Australia) as previously described. Heparin-agarose beads were washed once with 1% casein in PBS, once in PBS, and then blocked with 1% casein in PBS overnight at 4° C. TX100 merozoite protein extracts where incubated with beads containing 0.1% casein and 200 μg/mL of test inhibitor, or PBS as control, overnight at 4° C.; 50 μL of packed beads and 100 μL protein and inhibitor were used or each test sample. Inhibitors used were heparin and CSC. Unbound proteins in the supernatant were collected through Micro Bio-Spin Chromatography Columns (Bio-Rad). After incubation, beads were washed five times with PBS containing 0.1% casein and 1% Triton X-100. Bound proteins were eluted from beads with 50 μL of warmed reducing sample buffer. Bound and unbound proteins were separated by SDS-PAGE under reducing conditions and blotted onto membranes for probing with antibody detection with anti-MSP1 or anti-EBA175. 36. Baum J, Chen L, Healer J, Lopaticki S, Boyle M, et al. (2009) Reticulocyte-binding protein homologue 5—an essential adhesin involved in invasion of human erythrocytes by Plasmodium falciparum: Int J Parasitol 39: 371-380.

[6] = target: T2, MSP1-42; assay: Heparin-BSA binding assay; design: a C-terminal 42kDa (MSP1-42) fragment; made in house; host or cells: E. coli; species or system P. falciparum; conditions: soluble inhibitor
Method: as §1

CC(C)C[C@H](NC(=O)[C@H]1O[C@@H]1C(=O)O)C(=O)NCCCCN=C(N)N (relative stereo) [E64, trans-Epoxysuccinyl-L-leucylamido(4-guanidino)butane]
effect on invasive capacity of merozoites ([1]; merozoites incubated with E64): did not affect
effect on schizont rupture / merozoite release [2]: inhibiting rupture

O=C(O)CN(CCN(CC(=O)O)CC(=O)O)CC(=O)O [EDTA]
inhibition of merozoite invasion in IIA [1]: inhibited invasion

CO[C@H]1O[C@H](COS(=O)(=O)O)[C@@H](O[C@@H]2O[C@@H](C(=O)O)[C@@H](O[C@H]3O[C@H](COS(=O)(=O)O)[C@@H](O[C@@H]4O[C@H](C(=O)O)[C@@H](O[C@H]5O[C@H](COS(=O)(=O)O)[C@@H](O)[C@H](O)[C@H]5NS(=O)(=O)O)[C@H](O)[C@H]4O)[C@H](OS(=O)(=O)O)[C@H]3NS(=O)(=O)O)[C@H](O)[C@H]2OS(=O)(=O)O)[C@H](O)[C@H]1NS(=O)(=O)O [Fondaparinux]
IC50 ([3]; Plasmodium falciparum, read-out: IC50 against Plasmodium falciparum invasion): ~100 µg/mL (≈ 66.3 µM)

C=C1[C@@H](C)[C@H]2[C@H](Cc3ccccc3)NC(=O)[C@]23[C@H](OC(C)=O)/C=C/[C@@](C)(O)C(=O)[C@@H](C)C/C=C/[C@H]3[C@@H]1O [cytochalasin D]
inhibition of merozoite invasion in IIA [1]: effectively inhibited merozoite invasion

VFAEFLPLFSKFGSRMHILK [AMA1-binding peptide]
inhibition of merozoite invasion in IIA [1]: effectively inhibited merozoite invasion

chondroitin sulfate B-2,4-di-sulfated [CSB-2,4-OS]
inhibitory activity against P. falciparum blood stage growth in GIA (words) [3]: not inhibitory

chondroitin sulfate B-2-6-di-sulfated [CSB-2,6-OS]
inhibitory activity against P. falciparum blood stage growth in GIA (words) [3]: some inhibitory activity

chondroitin sulfate C [CSC]
inhibitory activity against P. falciparum blood stage growth in GIA (words) [3]: non-inhibitory; also recorded: not inhibitory
inhibition of lactoferrin binding to heparin-BSA [4]: not
inhibition of native MSP1-42 binding to heparin-agarose beads [5]: not

chondroitin sulfate D [CSD]
inhibitory activity against P. falciparum blood stage growth in GIA (words) [3]: not inhibitory

chondroitin sulfate E [CSE]
inhibition of different P. falciparum lines ([3]; 3D7, W2mef, D10, E8B, XIE, HCS3, SA-dependent and SA-independent invasion): inhibited to similar levels
IC50, inhibition of P. falciparum blood stage growth in GIA [3]: 26.7 µg/mL

de-2-O-sulfated heparin
inhibitory activity against P. falciparum blood stage growth in GIA (words) [3]: reduced activity
IC50, inhibition of P. falciparum blood stage growth in GIA [3]: 123 µg/mL

de-6-O-sulfated heparin
inhibitory activity against P. falciparum blood stage growth in GIA (words) [3]: reduced activity
IC50, inhibition of P. falciparum blood stage growth in GIA [3]: 373 µg/mL
inhibition of heparin-BSA binding to recombinant MSP1-42 [6]: inhibition
inhibition of native MSP1-42 binding to heparin-agarose beads [5]: not
inhibition of native MSP1-42 binding to heparin-agarose beads ([5]; listed as de-60-sulfated): unable to inhibit binding

de-N de-O-sulfated heparin [de-N/O-sulfated heparin]
inhibitory activity against P. falciparum blood stage growth in GIA (words) [3]: loss of inhibitory activity
inhibitory activity against P. falciparum blood stage growth in GIA (words) ([3]; listed as Completely desulfated heparin): no activity
inhibition of heparin-BSA binding to recombinant MSP1-42 [6]: inhibition

de-N-sulfated heparin
inhibitory activity against P. falciparum blood stage growth in GIA (words) [3]: no activity
inhibitory activity against P. falciparum blood stage growth in GIA (words) ([3]; listed as de-N-sulfated): loss of inhibitory activity
inhibition of native MSP1-42 binding to heparin-agarose beads [5]: not
inhibition of native MSP1-42 binding to heparin-agarose beads ([5]; listed as de-N-sulfated): unable to inhibit binding

dextran sulfate
IC50, inhibition of P. falciparum blood stage growth in GIA [3]: 37 µg/mL

fucoidan
IC50, inhibition of P. falciparum blood stage growth in GIA [3]: 38 µg/mL
